“Also recorded” adds a separate entry of the source.
Tests used:
[1] = test system: TNFR1 extracellular domain and control proteins; assay: Biacore SPR binding to control surfaces; conditions: capture antibody plus TNFR1, capture antibody
Description: (§1) BIA (Biomolecular Interaction Analysis) uses SPR to measure the binding of compounds to a protein immobilised on a chip surface. For this purpose a Biacore A100/4000 (GE Healthcare) was used. A CM5 sensor was immobilised via amine coupling on flow cell 1 with human Fc antibody domain (10k response units; kRU) and TNFR-Fc captured (2.5 kRU), flow cell 2 TNF (11 kRU), flow cell 3 was left blank (for non-specific binding), flow cell 4 TNFR-Fc (10 kRU), and flow cell 5 goat anti-human Fc 16 kRU). The sensor surface was then equilibrated in HBS-P (10 mM HEPES pH 7.4, 0.15 M NaCl, 0.005% Surfactant P20, BIAcore, GE Healthcare) with 5% DMSO for at least 5 h. Compounds were diluted from 100 mM stocks into DMSO matched buffer and then flowed over the immobilised flow cells at a concentration of 250 µM at the maximum flow rate of 30 μL/min. Background subtraction binding curves were analysed using the Biacore A100 BIA evaluation software version 1.1 following standard procedures.

TNF [2] = biological target: T1, TNF (Homo sapiens, UniProt P01375); assay: Biacore kinetics of binding; parameters: Human TNF (CID2043, UniProt P01375 residues 77–233); 6XHis-Smt3 (N, cleaved yes); host or cells: E. coli TOP10; conditions: SPR, multicycle, Biacore T100
Procedure: Surface plasmon resonance using a Biacore T100/T200 was used to measure the association rate constant (ka), the dissociation rate constant (kd) and the affinity (KD) of compounds. TNF (VCID 2043 Beryllium) was immobilised to approximately 5 kRU as described above and equilibrated for at least 5 h in HBS P + buffer with 5% DMSO. UCB-6876 was serially diluted from 187.5 µM, flowing over the immobilised TNF at 50 µL/min for 3 min before allowing full dissociation under flow for at least 6 min. […] […] The compounds were allowed to dissociate for 2 h under flow.
Target sequence in this assay (P01375 77-233): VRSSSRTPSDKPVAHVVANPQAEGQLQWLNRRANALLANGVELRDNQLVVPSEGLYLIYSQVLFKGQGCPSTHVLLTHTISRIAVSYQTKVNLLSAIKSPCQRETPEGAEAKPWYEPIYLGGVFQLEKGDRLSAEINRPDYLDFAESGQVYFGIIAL

TNF [3] = biological target: T1, TNF; assay: Mass spectrometry monomer exchange; assay type: biochemical; parameters: stabilise an asymmetrical form of the soluble TNF trimer; conditions: human TNF pre-incubated with compound, mixed 1:1 with mouse TNF
Procedure: Mouse and human TNF protein were made up to a concentration of 2 mg/mL (20 mM ammonium acetate, pH 7.4) and desalted and buffer-exchanged using Zeba columns. The protein was then diluted to 20 μM in ammonium acetate buffer. An aliquot of each was mixed 1:1 and analysed at various time points. Human TNF was incubated (1:1, v/v) with compound (20 μΜ), 4% DMSO in 20 mM ammonium acetate) and mixed with mouse TNF (1:1) and tested at various time points using an Advion Nanomate (for sample introduction by nanospray) and ThermoFisher Exactive Plus EMR Mass Spectrometer. The following settings were utilised on the mass spectrometer: scan range 1000 to 8000 m/z; spray voltage 1.5 kV; capillary temperature 150 °C; S-lens RF 200; source DC offset 25 V, injection flatapole 7 V; inter flatapole 6 V; bent flatapole DC 6 V; EMR mode on. Data were processed using ThermoFisher Protein Deconvolution 3.0.
Target sequence in this assay (P01375 77-233 limits assumed): as the sequence (P01375 77-233) above

TNF [4] = biological target: T1, TNF; assay: Biacore binding with and without non-ionic detergent; parameters: stabilise an asymmetrical form of the soluble TNF trimer; conditions: 0.01% v/v Triton X-100 and 0.025% v/v Tween-80; Biacore T200
Procedure: Experiments to show any effect of addition of non-ionic detergent were performed on a Biacore, with human TNF on the solid phase and compounds in solution phase in the presence and absence of 0.01% v/v Triton X-100 and 0.025% v/v Tween-80.
Three Biacore T200s were treated with sodium hypochlorite to remove any traces of detergent. Each machine was equilibrated in either HBS with no detergent (control), HBS:
Tween-P80 (0.025% v/v) or HBS: Triton X-100 (0.01% v/v). Human TNF was tethered to ~ 2000 RU before equilibration in the equivalent control or detergent buffers plus 1% DMSO. […]
were fitted to a BIAevaluation T200 1:1 algorithm and the fitted data shown. […]
Target sequence in this assay (P01375 77-233 limits assumed): as the sequence (P01375 77-233) above

TNF [5] = biological target: T1, TNF; assay: Biacore SPR fragment binding to immobilised TNF; parameters: Human TNF (CID2043, UniProt P01375 residues 77–233); 6XHis-Smt3 (N, cleaved yes); host or cells: E. coli TOP10; conditions: SPR fragment screen; concentration-dependent response
Description: as §1
Target sequence in this assay (P01375 77-233): as above

Cc1ccc(C)c(Cn2c(CO)nc3ccccc32)c1 [UCB-6876]
binding to TNFR1 and control proteins (selectivity) [1]: selectivity over the TNFR1 extracellular domain and control proteins; also recorded: not to control proteins
Kd (TNF [2]; read-out: KD (kd/ka)): 22 µM
kon (TNF [2]; read-out: association rate constant ka): 923 M⁻¹ s⁻¹
koff (TNF [2]; read-out: dissociation rate constant kd): 0.02 s⁻¹
exchange of mouse and human TNF monomers (TNF [3]): blocks the exchange of mouse and human monomers
effect of non-ionic detergents on binding to human TNF (TNF [4]): does not alter the binding
binding to immobilised TNF (TNF [5]): bound to TNF; also recorded: specifically binds to immobilised TNF
